{
  "source": "patent US5985824A",
  "about": "“Methods and compositions for treating cystic fibrosis” (priority 1997, dated 1999)",
  "key": {"ΔF508-CFTR (IBE-1 cells) [1]": {"test_system": "ΔF508-CFTR (IBE-1 cells)", "test": "whole cell patch-clamp analysis of IBE-1 cells", "type": "cell-based, human", "settings": "200 μM extracellular DPC, n=4, DSG-treated IBE-1 cells", "method": "The bath (extracellular) solution contained: 140 mM N-methyl-Dglucamine (NMDG), 2 mM CaCl2, 1 mM MgCl2, 0.1 mM CdCl2, 10 mM HEPES, 4 mM CsCl, and 10 mM glucose, pH 7.4. These solutions were designed so as to study only currents flowing through Cl^- channels, since Cl^- was the only significant permeant ion in the solutions. Furthermore, Ca^2+ -activated Cl^- currents were minimized by inclusion of 10 mM EGTA in the intracellular solution and 100 μM of Cd^2+ in the extracellular bath. K^+ currents were minimized by including 20 mM TEA in the intracellular solution. Aspartate was used as the replacement anion in experiments in which extracellular Cl^- concentration was changed. Forskolin (10 μM), IBMX (100 μM), 8-(4-chlorophenylthio)-cAMP (cpt-cAMP, 200 μM), diphenylamine carboxylic acid (DPC, 200 μM), UTP (100 μM), and ionomycin (1 μM) were added to the bath solutions as indicated. Current recordings were made from the same cells before, during, and after exposure to the solutions containing the different agonists or inhibitors. All experiments were performed at room temperature (22° C.). Currents were filtered at 2 kHz. Data acquisition and analysis were performed using the PCLAMP 5.5.1 software (Axon Instruments, Foster City, Calif.).\nIn all of the successfully patched CF IBE-1 cells from 6 separate coverslips no activation of whole cell currents in response to forskolin (10 μM) plus IBMX (100 μM) or cpt-cAMP (200 μM) was detected (FIG. 10A and 10B), indicating no endogenous CFTR channel activity in these cells. In contrast, in 7 out of 19 successful patched cells from 19 separate coverslips treated with DSG (10 μM) for 48 to 72 hrs. a significant activation of whole cell currents was observed. As all the other cells, the holding potential was 0 m, which inactivated the voltage-gated Na^+ and Ca^++ channels. After addition of 200 μM cpt-cAMP to the bath solution, voltage steps from the holding potential to between -100 mV and 80 mV in 20 mV increments activated whole cell currents. In these experiments, the intracellular and extracellular solutions were designed to study only current flowing through Cl^- channels, since Cl^- is the only significant permeant ion in solution. Ca^++ and K^+ currents were minimized by 100 μM of extracellular Cd^++ and 20 mM of intracellular TEA respectively. Furthermore, the currents were ascertained to be Cl^- currents from change in the reversal potential which was shifted from 1.1±1.5 to 47.3±6.1 mV by reducing extracellular Cl^- from 150 mM to 20 mM.\nIt is highly unlikely that Ca^++ -activated Cl^- was recorded in these experiments because of the presence of 10 mM intracellular EGTA and 100 µM extracellular Cd^++. […] Special attention was paid to detect possible contribution of the outwardly rectifying Cl^- channel (ORCC) to the whole cell currents. Because of a possible upregulatory role of CFTR, ORCC can be activated in normal but not in CF airway epithelial cells (Hwang et al. (1989), supra.; Li et al. (1988), Nature 331: 358-360; Morris and Frizzel (1993); Am. J. Physiol.; Schwiebert et al. (1994), Am. J. Physiol.)."}, "ΔF508-CFTR (IBE-1 cells) [2]": {"test_system": "ΔF508-CFTR (IBE-1 cells)", "settings": "CFTR vs ORCC; Cliff and Frizzel, Schwiebert et al.; cited from earlier work"}, "CFTR": {"test_system": "CFTR", "settings": "Yang et al. (1997); cited from earlier work"}, "[3]": {"test_system": "ΔF508-CFTR (C127-ΔF508-low cells)", "test": "SPQ halide efflux assay, cAMP-stimulated Cl- channel activity, C127-ΔF508-low cells", "type": "cell-based", "settings": "C127-ΔF508-low cells; for cAMP-stimulated change in SPQ fluorescence / Cl- channel activity, in words: DSG 10-100 μg/ml, sodium butyrate 5 mM 24 h, spermidine 5 μg/ml 72 h", "method": "(§1) The cAMP-dependent CFTR Cl^- channel activity was assessed using the halide-sensitive fluorophore 6-methoxy-N-(3-sulfopropyl)-quinolinium (SPQ) essentially as described previously (Cheng et al., (1995), supra.; Marshall et al., supra.). Briefly, the cells were treated with different amounts of DSG for the times specified. At the end of the treatment period, the cells were loaded with SPQ by hypotonic shock for 4 min at room temperature. SPQ fluorescence initially was quenched by incubating the cells for up to 30 min in a NaI buffer (135 mM NaI, 2.4 mM K2 HPO4, 0.6 mM KH2 PO4, 1 mM MgSO4, 1 mM CaSO4, 10 mM dextrose, and 10 mM N-2 hydroxyethylpiperazine-N'2-ethanesulfonic acid, pH 7.4). After measuring the baseline fluorescence (Fo) for 2 min., the NaI solution was replaced with one containing 135 mM NaNO3, and fluorescence was measured for another 16 min. Forskolin (20 μM) and 3-isobutyl-1-methyl-xanthine (IBMX) (100 μM) were added 5 min after the anion substitution to increase intracellular levels of cAMP.\n(§2) An increase in halide permeability is reflected by a more rapid increase in SPQ fluorescence. It is the rate of change rather than the absolute change in signal that is the important variable in evaluating anion permeability. Differences in absolute levels reflect quantitative differences between groups in SPQ loading, size of cells, or number of cells studied. The data are presented as means± SE of fluorescence at time t (Ft) minus the baseline fluorescence (Fo, the average fluorescence measured in the presence of I^- for 2 min. before ion substitution) and are representative of results obtained under each condition.\nFor each experiment, between 50 to 100 cells were examined on a given day and studies under each condition were repeated on at least two days. For each experiment, the responses were compared with those obtained with control or untreated cells. […] Under the conditions specified above, control cells were unresponsive to added cAMP agonists. There was a broad spectrum in the rate of change in SPQ fluorescence observed with responsive cells. Normally, cells were scored as responsive if they generated a minimum of a […] change in the rate of increase in SPQ fluorescence following stimulation with cAMP agonists. Because the response was heterogenous, the data shown are for the 10% of cells in each experiment showing the greatest response.\nA bovine-papilloma virus based eukaryotic expression vector (pBPV-CFTR-ΔF508) containing the gene for ΔF508 CFTR and neomycin resistance were transfected into C127 cells. The C127 cells are murine mammary cells which were obtained from ATCC (#CRL 1616). The expression of the mutant ΔF508 protein and neomycin was driven using a metallothionein promoter. Following transfection, clonal cells resistant to G418 were isolated and cells expressing the mutant ΔF508 protein were subsequently identified using antibodies specific for CFTR (mAb-13-1). The cells expressing the mutant ΔF508 CFTR protein were maintained in Dulbecco's modified eagle media (DMEM) supplemented with glutamine and fetal calf serum.\nC127-ΔF508-low (mouse mammary tumor) is a recombinant cell line stably transfected with the cDNA encoding the mutant ΔF508-CFTR (Cheng et al. (1995), supra.; Marshall et al. (1994), J. Biol. Chem. 269: 2987-2995). […] C127-mock is a cell line that has been stably transfected with the backbone of the expression vector used to generate C127-ΔF508-low (Cheng et al. (1995), supra.). LLCPK1 -ΔF508 (pig kidney epithelial) is a recombinant cell line stably expressing low levels of the mutant ΔF508-CFTR protein (Marshall et al., supra.). The details of the generation, characterization and routine propagation of these cell lines has been described (Cheng et al. (1995), supra.; Marshall et al., supra.).\nCells were treated with up to 100 μg/ml of DSG for up to 72 h. Concentrations of DSG >50 μg/ml were toxic to most of the cell types tested. […]"}, "ΔF508-CFTR": {"test_system": "ΔF508-CFTR", "settings": "recombinant cells; Cheng et al. (1995); cited from earlier work"}, "[4]": {"test_system": "ΔF508-CFTR (JME/CF15 cells)", "test": "SPQ assay, cAMP-stimulated Cl- channel activity, JME/CF15 cells", "type": "cell-based, human", "settings": "72 h", "method": "as §1, §2\nFor each experiment, between 50 to 100 cells were examined on a given day and studies under each condition were repeated on at least two days. […] There was a broad spectrum in the rate of change in SPQ fluorescence observed with responsive cells. Normally, cells were scored as responsive if they generated a minimum of a […] change in the rate of increase in SPQ fluorescence following stimulation with cAMP agonists. […]"}},
  "note": "Entries after “also recorded” stand apart in the source; their conditions may differ.",
  "data": [
    {"compound": "O=C(O)c1ccccc1Nc1ccccc1", "note": "[DPC, diphenylamine carboxylic acid]", "values": [
      {"measurement": "reduction of whole cell currents", "setting": "ΔF508-CFTR (IBE-1 cells) [1]", "value": "92±4", "unit": "%"},
      {"measurement": "selectivity of inhibition", "setting": "ΔF508-CFTR (IBE-1 cells) [2]", "value": "specifically inhibit CFTR but not ORCC"}
    ]},
    {"compound": "O=c1c(-c2ccc(O)cc2)coc2cc(O)cc(O)c12", "note": "[genistein]", "values": [
      {"measurement": "activity of CFTR Cl channels at the cell surface", "setting": "CFTR", "value": "enhance the activity of CFTR"}
    ]},
    {"compound": "CCCC(=O)[O-].[Na+]", "note": "[sodium butyrate]", "values": [
      {"measurement": "cells generating a measurable response", "setting": "[3]; SPQ, average of 5 experiments", "value": 90, "unit": "%"},
      {"measurement": "cAMP-stimulated change in SPQ fluorescence / Cl- channel activity, in words", "setting": "[3]", "value": "generated cAMP-stimulated halide efflux"},
      {"measurement": "effect on ΔF508-CFTR expression / location, in words", "setting": "ΔF508-CFTR", "value": "overexpression of ΔF508 in recombinant cells; also recorded: results in synthesis of detectable amounts of band C-CFTR; also recorded: capable of effecting the presence of ΔF508-CFTR at the plasma membrane"}
    ]},
    {"compound": "NCCCCNCCCN", "note": "[spermidine]", "values": [
      {"measurement": "cAMP-stimulated change in SPQ fluorescence / Cl- channel activity, in words", "setting": "[3]", "value": "No measurable cAMP-stimulated Cl^- channel activity was detected"},
      {"measurement": "cAMP-stimulated Cl- channel activity, in words", "setting": "[4]", "value": "not replicated"}
    ]},
    {"compound": "calyculin", "values": [
      {"measurement": "activity of CFTR Cl channels at the cell surface", "setting": "CFTR", "value": "enhance the activity of CFTR"}
    ]}
  ]
}
